Series [1] relates to Vero cell. Kind of series: Cytotoxicity in Vero cells without virus infection. The following applies: Vero cells in the absence of virus, 72 hours at 37°C. The class given is cell-based. The procedure:
(§1) The in vitro antiviral activity of BU-4724V was assessed against the herpes simplex virus type 1 (HSV-1) using the KOS strain. The assay was done according to the reported protocol of C. McLaren et al. in Antiviral Research, 3, 223-234, (1986) with minor modification. Briefly, 50 µl of Eagle's MEM medium containing BU-4724V and then 200 µl of the Vero cell suspension (2 X 10⁴ cells/200 µl) were added to a well of a 96-well microtiter plate. To the well, 50µl of medium containing approximately 30 times of the 50% tissue culture infectious dose (50% TCID) of virus was added. In a parallel experiment, the same set of cells without virus infection was prepared, which was for the determination of cytotoxicity of the sample. After 72 hours incubation at 37°C, the inhibition degree of virus-induced cytopathic effect and cytotoxicity by the sample were determined, respectively. The ID₅₀ is expressed as the concentration of a compound showing 50% growth inhibition of the cytopathic effect and the TD₅₀ as the concentration of a compound showing 50% growth inhibition of the cells in the absence of virus. Acyclovir was used as the reference compound for anti-HSV activity in the assay.

The subject of series [2] is herpes simplex virus type 1 (HSV-1) using the KOS strain. Briefly: Anti-HSV assay, inhibition of virus-induced cytopathic effect in Vero cells. Format: cell-based. The following applies: HSV-1 KOS, 72 hours at 37°C. The procedure:
as §1

Series [3] concerns HIV-2 CBL-20. Briefly: XTT anti-HIV assay in CEM-SS cells. The settings on record: HIV-2 CBL-20 strain, read-out: IC₅₀. Format: cell-based, human immunodeficiency virus.
From the text: The CEM-SS cells were obtained from Peter Nara, AIDS Research and Reference Program, Division of AIDS, NIAID, NIH.
(§2) The antiviral effect is expressed as the inhibitory concentration of a compound which reduces the number of viruses of the infected culture to 50% of that of the drug - untreated, control culture (IC₅₀). The cytotoxicity is expressed as the concentration of a compound which yields 50% of the number of viable cells of the untreated control cultures (IC₅₀). In this assay, 2',3'-Dideoxyinosine (ddI, Videx®) was also tested for anti-HIV activity.
The test system of series [4] is HIV-1 RF. Briefly: XTT anti-HIV assay in CEM-SS cells. The settings on record: HIV-1 RF strain, read-out: IC₅₀. The class given is cell-based, human immunodeficiency virus.
Method: as §2
In series [5] the test system is HIV-1 IIIb. Kind of series: XTT anti-HIV assay in CEM-SS cells. Format: cell-based, human immunodeficiency virus. The following applies: HIV-1 IIIb strain, read-out: IC₅₀.
Method: as §2
The subject of series [6] is S. typhi 901. The class given is cell-based. The settings on record: 901, 18 h, pH 7.
The subject of series [7] is CEM-SS cells. Kind of series: Cytotoxicity in CEM-SS cells (XTT assay). The settings on record: result in words. Format: cell-based.
Method: as §2
A short description of series [8]: Cytotoxicity in CEM-SS cells (XTT assay). Format: cell-based. The settings on record: human, 50% of viable cells of untreated control, read-out: cytotoxicity IC₅₀.
Method: as §2
Series [9] deals with CEM-SS cells.
Method: as §2
The test system of series [10] is human immunodeficiency virus. Briefly: XTT anti-HIV assay in CEM-SS cells (strain not stated). Format: cell-based. The following applies: Human immunodeficiency virus 1, anti-HIV activity, read-out: IC₅₀.

Like-named read-outs stand apart in the source and are kept apart here. Positions of bridges follow the written chain, without caps; N, C: chain ends. Residues, ends and D or L forms follow the SMILES beside them.

In the case of `Nc1nc2c(ncn2COCCO)c(=O)[nH]1` [Acyclovir], in series [1], the TD₅₀ is greater than 100 µg/mL. In series [2], this compound came in with an ID₅₀ of 0.28 µg/mL.

Regarding `CC[C@H](C)[C@@H]1NC(=O)[C@H](C)NC(=O)[C@H](Cc2ccc(O)cc2)NC(=O)CNC(=O)[C@@H]2CSSC[C@@H]3NC(=O)C[C@H](NC(=O)[C@H](CC(N)=O)NC(=O)[C@H](CSSC[C@@H](C(=O)N[C@@H](Cc4ccccc4)C(=O)N[C@@H](Cc4c[nH]c5ccccc45)C(=O)O)NC(=O)[C@H](C(C)C)NC1=O)NC(=O)[C@H](CO)NC(=O)CNC(=O)[C@H](C(C)C)NC(=O)CNC(=O)[C@H](CC(C)C)NC3=O)C(=O)N[C@@H](Cc1ccccc1)C(=O)N[C@@H](C)C(=O)NCC(=O)N2` [BU-4724V] (CLGVGSCNDFAGCGYAIVCFW-OH; disulfide 1-13, 7-19; lactam N-9; C-terminus assumed), the IC50 in series [3] was 230 nM; in series [4], 90 to 600 nM; in [5] it was 460 nM. For the same compound, the TD₅₀ in series [1] is greater than 100 µg/mL. Further, the solubility result (in alkaline water) was “slightly soluble”; the solubility result (in dimethyl sulfoxide, dimethylformamide, methanol and ethanol) is reported as “soluble”; the solubility result (in water, ethyl acetate, chloroform, benzene, n-hexane and petroleum ether) is given as “insoluble”. Moreover, the ID₅₀ in series [2] was found to be 48 µg/mL. In [6], this compound came in with a minimum inhibitory concentration (MIC) greater than 100 µg/mL. In addition, in [7], the cytotoxicity result is on record as “very weak cytotoxicity”. In series [8], the CC50 is roughly 150000 nM.

With `O=c1[nH]cnc2c1ncn2[C@H]1CC[C@@H](CO)O1` [ddI, 2',3'-Dideoxyinosine], the cytotoxicity entry in series [9] was “very weak cytotoxicity”. In series [10], the IC50 lay within 1000 to 2000 nM.

The record behind these values is EP0603031A2, “Antiviral antibiotic BU-4724V and preparation thereof” (Bristol-Myers Squibb Company, priority 1992, dated 1994).
